# Literature values in paper PMC2677997 (Bioorganic & medicinal chemistry, 2009).
# Tested on: SNARE cleavage in neuronal cells
# Details: cited from earlier work
structure (smiles),measurement,value
"O=C(/C=C/c1ccc(Cl)cc1Cl)NO [Compound 2, 2,4-dichlorocinnamic hydroxamic acid]",activity in a cellular assay,inactive or cytotoxic
